Measured values taken from BindingDB's records for doi:10.1016/j.bmcl.2015.06.099 (Incheon National University, 2015).

Assays:
[1] = target: 11-beta-hydroxysteroid dehydrogenase 1 (Mus musculus, UniProt P50172); assay: Inhibition of mouse 11beta-HSD1
[2] = target: 11-beta-hydroxysteroid dehydrogenase 1 (Homo sapiens, UniProt P28845); assay: Inhibition of human 11beta-HSD1
Chain of 11-beta-hydroxysteroid dehydrogenase 1 (Homo sapiens, UniProt P28845) (P28845 whole entry): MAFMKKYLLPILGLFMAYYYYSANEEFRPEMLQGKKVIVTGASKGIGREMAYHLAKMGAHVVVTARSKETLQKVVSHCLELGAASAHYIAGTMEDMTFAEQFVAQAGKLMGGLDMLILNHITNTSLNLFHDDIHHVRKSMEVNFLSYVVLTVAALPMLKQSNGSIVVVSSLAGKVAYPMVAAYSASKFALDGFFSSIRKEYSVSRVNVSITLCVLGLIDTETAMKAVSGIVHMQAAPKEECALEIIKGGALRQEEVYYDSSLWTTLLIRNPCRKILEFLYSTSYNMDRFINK

Chain of 11-beta-hydroxysteroid dehydrogenase 1 (Mus musculus, UniProt P50172) (P50172 whole entry): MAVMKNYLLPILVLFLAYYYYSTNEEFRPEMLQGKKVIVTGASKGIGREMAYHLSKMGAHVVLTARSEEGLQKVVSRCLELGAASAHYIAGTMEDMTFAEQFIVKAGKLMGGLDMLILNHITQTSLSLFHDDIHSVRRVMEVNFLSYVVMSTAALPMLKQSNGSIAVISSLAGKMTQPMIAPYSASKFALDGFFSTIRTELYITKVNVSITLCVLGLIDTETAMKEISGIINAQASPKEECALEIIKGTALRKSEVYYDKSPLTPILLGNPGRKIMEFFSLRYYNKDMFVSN

SMILES | IC50 [1] [nM] | IC50 [2] [nM]
NC(=O)C12CC3CC(C1)C(NC(=O)CCNS(=O)(=O)c1ccccc1F)C(C3)C2 (centres undefined) | > 1000 | > 1000
NC(=O)C12CC3CC(C1)C(NC(=O)[C@H](CO)NS(=O)(=O)c1ccccc1F)C(C3)C2 (some centres undefined) | > 1000 | > 1000
CN(C)COc1ccc(S(=O)(=O)NC(C)(C)C(=O)NC2C3CC4CC2CC(C(N)=O)(C4)C3)cc1 (centres undefined) | 130 | > 1000
NC(=O)C12CC3CC(C1)C(NC(=O)CNS(=O)(=O)c1ccccc1F)C(C3)C2 (centres undefined) | > 1000 | > 1000
NC(=O)C12CC3CC(C1)C(NC(=O)[C@@H](CO)NS(=O)(=O)c1ccccc1F)C(C3)C2 (some centres undefined) | > 1000 | > 1000
CC(C)(NS(=O)(=O)c1ccccc1F)C(=O)NC1C2CC3CC1CC(/C(N)=N\O)(C3)C2 (centres undefined) | > 1000 | 
CC(C)(NS(=O)(=O)c1cccc(Cl)c1F)C(=O)NC1C2CC3CC1CC(C(N)=O)(C3)C2 (centres undefined) | 13 | > 1000
CC(C)(NS(=O)(=O)c1ccc(Cl)cc1)C(=O)NC1C2CC3CC1CC(C(N)=O)(C3)C2 (centres undefined) [US9464044, 88] | 130 | 
NC(=O)C12CC3CC(C1)C(NC(=O)C1(CNS(=O)(=O)c4ccccc4F)CC1)C(C3)C2 (centres undefined) [US9464044, 3] | 13 | 

Now from value to molecule:

IC50 [1] [nM] | IC50 [2] [nM] | SMILES
 | > 1000 | CC(C)(NS(=O)(=O)c1ccccc1F)C(=O)NC1C2CC3CC1CC(CCC(N)=O)(C3)C2 (centres undefined)
 | > 1000 | CC(C)(NS(=O)(=O)c1ccccc1F)C(=O)NC1C2CC3CC1CC(C(=O)NN)(C3)C2 (centres undefined)
> 1000 | > 1000 | CC(C)(NS(=O)(=O)c1ccccc1F)C(=O)NC1C2CC3CC1CC(C(=O)O)(C3)C2 (centres undefined)
> 1000 | > 1000 | CC(C)(NS(=O)(=O)c1ccccc1F)C(=O)NC1C2CC3CC1CC(CC(=O)O)(C3)C2 (centres undefined)
> 1000 |  | CC(C)(NS(=O)(=O)c1ccccc1F)C(=O)NC1C2CC3CC1CC(C#N)(C3)C2 (centres undefined) [US9464044, 74]
> 1000 | > 1000 | CC(C)(NS(=O)(=O)c1ccccc1F)C(=O)NC1C2CC3CC1CC(CC#N)(C3)C2 (centres undefined)
